The test system of experiment [1] is IFN-α/pSTAT5 in CD3+ cells (human PBMC). Put plainly: Inhibitory effect on expression of pSTAT5 in CD3+ cells using FACS detection (IFN-α stimulated). It is filed as cell-based. As to conditions: IFN-α 30 ng/ml. The method, then:
Test Example 1: The Inhibitory Effect of Compounds on the Expression of pSTAT5 in CD3+Cells Using FACS Detection
• DMSO, Sigma, Cat #D2650-100 mL, stored at room temperature. • Perm buffer III, BD Biosciences, Cat #558050, stored at 4° C. • Lyse/Fix buffer, BD Biosciences, Cat #558049, stored at room temperature. • EDTA, Invitrogen, Cat #15575-038, stored at room temperature. • PBS, Hyclone, Cat #SH30256.01, stored at 4° C. • PE Mouse Anti-Human CD3, BD Biosciences, Cat #555333, stored at 4° C. • Mouse anti-human Phosphorylation-STAT5 (pY694) (Alexa Fluor® 647 Conjugate), BD Biosciences, Cat #562076, stored at 4° C. • IFN-α, Biolegend, Cat #592702
1) On the day of experiment, the compound was prepared into a 10 mM solution with DMSO, diluted to 1.5 mM in DMSO, and then diluted to 8 gradient concentrations in 3-fold dilutions.
2) 5 μL of the diluted compound was transferred into 120 ul of DPBS solution containing 0.1% BSA.
3) Positive and negative control groups were set up, with the addition of 0.2% DMSO to the positive and negative control groups.
1) Add 0.5 million and 67.5 uL of human PBMC cells to each well of the 96-well cell culture plate.
2) Add 3.5 uL of diluted compound and mix well.
3) Incubate in a 37° C. incubator for 60 minutes.
4) Dilute IFN-alpha in DPBS containing 0.1% BSA to 600 ng/mL, and dilute PE-anti-hCD3 antibody in DPBS containing 0.1% BSA to 3 fold. After the above incubation for 60-minute, add diluted PE-anti-hCD3 antibody at 5 uL per well and add diluted IFN-α at 4 uL per well, i.e., the final concentration of IFN-α per well was 30 ng/ml.
5) Incubate in a 37° C. incubator for 30 minutes.
6) Transfer all cells to a 96-well deep well plate and add 1 mL of 37° C. preheated lysis/fix buffer.
7) Incubate at 37° C. in dark for 10 minutes.
8) Centrifuge at 600 g for 5 minutes and then discard the supernatant. Wash by adding 1 mL of PBS for twice and centrifuge.
9) Add 1 mL of Perm buffer III to the cell precipitation.
10) Incubate at 4° C. in dark for 30 minutes.
11) Centrifuge at 600 g for 5 minutes and then discard the supernatant. Wash by adding 1 mL of PBS for twice and centrifuge.
12) Dilute APC anti-human pSTAT5 antibody in staining buffer for 200 fold, and add it to cell well at 100 uL per well and mix well.
13) Incubate at room temperature for 40 minutes.
14) Wash twice by adding staining buffer with 1 mL for each well, and centrifuge at 600 g for 5 minutes.
15) Discard the supernatant, and re-suspend the cell precipitation in 300 uL of staining buffer.
16) Sample and analyze in a flow cytometer to obtain the IC50 of the samples to be tested, Table 1.

Another experiment has as its target TYK2 (JH1) (Homo sapiens (Human), UniProt P29597). Put plainly: Kinase (JH1) experiment, TYK2. It is filed as biochemical. As to conditions: kinase domain. The method, then: 1.2. Kinase (JH1) Experiment Operation was as Follows:
1.2.1. Dissolve the compound with DMSO to a storage concentration of 10 mM.
1.2.2. Prepare a compound with a concentration of 100 times the final concentration in a compound dilution plate by diluting it from the highest concentration point for a total of 4 concentration points using a 27 times dilution method, and transfer it to the Echo plate.
1.2.3. Use an Echo instrument to pulse the compound from the Echo plate to a 384 experimental plate, thereby obtain the compound with 11 concentration points of the 3-fold dilution matrix.
1.2.4. Configure a 2× kinase working solution and add it to a 384-well experimental plate at 5 uL per well. Incubate the compound and the kinase at room temperature for 15 minutes.
1.2.5. Add 5 ul 2× substrate (containing ATP) to the 384 well plate.
1.2.6. Incubate at room temperature for 45 minutes.
1.2.7. Add the detection reagent mixture to the 384-well plate, centrifuge for 30 seconds, and incubate at room temperature for 60 minutes.
1.2.8. Read the signal values using Envision Microplate Reader (PerkinElmer).
1.3.1. Use XL-Fit software for data analysis to obtain IC50 of the compounds, see Table 2 for results.

The values that follow come from US20240376080A1, “COMPOUND AS TYK2/JAK1 PSEUDOKINASE DOMAIN INHIBITOR, AND SYNTHESIS AND USE METHODS” (ZHEJIANG WENDA PHARMACEUTICAL TECHNOLOGY CO., LTD., priority 2021, published 2024).

Some results are limits rather than exact numbers.

TYK2 (JH1), sequence (P29597 897-1176): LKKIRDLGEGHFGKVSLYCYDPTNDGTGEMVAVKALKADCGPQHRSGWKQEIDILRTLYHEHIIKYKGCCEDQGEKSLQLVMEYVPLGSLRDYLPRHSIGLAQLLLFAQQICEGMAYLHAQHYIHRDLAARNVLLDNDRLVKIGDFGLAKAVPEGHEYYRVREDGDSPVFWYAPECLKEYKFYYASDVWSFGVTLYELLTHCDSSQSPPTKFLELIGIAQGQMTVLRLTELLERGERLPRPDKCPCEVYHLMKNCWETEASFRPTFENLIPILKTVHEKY

On to `[2H]C([2H])([2H])NC(=O)c1nnc(NC(=O)[C@@H]2CC23CC3)cc1Nc1cccc(-c2ncn(C)n2)c1OC` [Compound 1R], for which the figures for the half-maximal inhibitory concentration (IC50) (in experiment [1]; on TYK2 (JH1)) were 6.3 nM and above 9950 nM, respectively.

On to `[2H]C([2H])([2H])NC(=O)c1nnc(NC(=O)[C@H]2CC23CC3)cc1Nc1cccc(-c2ncn(C)n2)c1OC` [Compound 1S], for which the IC50 (as a rule, the concentration that inhibits the measured activity by half) was 4.2 nM in experiment [1] and above 9950 nM at TYK2 (JH1). On the same counts, the results for `[2H]C([2H])([2H])NC(=O)c1nnc(NC(=O)[C@@H]2CC23CC3)cc1Nc1nccc(-c2ncn(C)n2)c1OC` [Compound 2R] are 5.7 nM and above 9950 nM. On the same counts, the results for `[2H]C([2H])([2H])NC(=O)c1nnc(NC(=O)[C@H]2CC23CC3)cc1Nc1nccc(-c2ncn(C)n2)c1OC` [Compound 2S] are 3.9 nM and above 9950 nM.

On to `[2H]C([2H])([2H])NC(=O)c1nnc(NC(=O)[C@H]2CC23CC3)cc1Nc1cccc(-c2noc(COC)n2)c1OC` [Compound 3S], for which, in experiment [1], the concentration for half-maximal inhibition (IC50) came to 22.8 nM. Regarding `[2H]C([2H])([2H])NC(=O)c1cnc(NC(=O)[C@@H]2CC23CC3)cc1Nc1cccc(-c2ncn(C)n2)c1OC` [Compound 4R], the IC50 is 5.3 nM in experiment [1] and above 9950 nM against TYK2 (JH1).

For the compound `[2H]C([2H])([2H])NC(=O)c1cnc(NC(=O)[C@H]2CC23CC3)cc1Nc1cccc(-c2ncn(C)n2)c1OC` [Compound 4S], the half-maximal inhibitory concentration (IC50) in experiment [1] was 4.1 nM; at TYK2 (JH1), above 9950 nM.

`[2H]C([2H])([2H])NC(=O)c1nnc(NC(=O)C2CC23CC3)cc1Nc1nccc(-c2noc(COC)n2)c1OC` (centres unmarked) [Compound 5] had an IC50 in experiment [1] of 13 nM.
